Measurements as given in article PMC9573667, “Efficient Oxidative Dearomatisations of Substituted Phenols Using Hypervalent Iodine (III) Reagents and Antiprotozoal Evaluation of the Resulting Cyclohexadienones against T. b. rhodesiense and P. falciparum Strain NF54” (Molecules, 2022).
Where two headings read alike, the source gives them in different places.

How the values were obtained:
[1] = tested on: P. falciparum, strain NF54, erythrocytic stages; test: In vitro growth inhibition assay of Plasmodium falciparum NF54 ([3H]-hypoxanthine incorporation); format: cell-based; conditions: for IC50: Plasmodium falciparum; for ligand efficiency lipophilic price (LELP), P. falciparum / lipophilic ligand efficiency (LLE), P. falciparum: based on IC50 values in nmol/L, DataWarrior 5.5.0
Protocol: Antimalarial activity was determined in vitro against the erythrocytic stages of P. falciparum using the drug-sensitive strain NF54. Parasite proliferation was assessed by incorporation of [^3H]-hypoxanthine using a modified version of [75]; for details, please refer to the Supplementary Materials. The positive control was chloroquine.
1. Experimental of biological testing
1.1 In vitro growth inhibition assay of Plasmodium falciparum NF54
Plasmodium falciparum, strain NF54, erythrocytic stages, and the standard drug, chloroquine, were used for the assay. The parasite cultures incubated in RPMI 1640 medium with 5% AlbuMAXTM (without hypoxanthine) were exposed to serial drug dilutions in microtiter plates. After 48 h of incubation at 37 °C in a reduced oxygen atmosphere, 0.5 μCi [3H]-hypoxanthine was added to each well of the plate. Cultures were incubated for a further 24 h before they were harvested onto glass-fiber filters and washed with distilled water. The radioactivity was counted using a BetaplateTM liquid scintillation […]
counter (Wallac, Zurich). […]
concentration and expressed as percentage of the untreated controls. IC50 values were calculated from the sigmoidal inhibition curves using Microsoft Excel. Chloroquine was used as control. […]

[2] = tested on: T. brucei rhodesiense, strain STIB900 trypomastigote forms; test: In vitro growth inhibition assay of Trypanosoma brucei rhodesiense STIB900 (Alamar blue); format: cell-based; conditions: for IC50: Trypanosoma brucei; for ligand efficiency lipophilic price (LELP), T. brucei rhodesiense / lipophilic ligand efficiency (LLE), T. brucei rhodesiense: based on IC50 values in nmol/L, DataWarrior 5.5.0
Protocol: Trypanocidal activity was determined in vitro against axenically grown bloodstream-forms of T. b. rhodesiense STIB900 as described in Refs. [76, 77] and detailed in the Supplementary Materials. Parasite proliferation was assessed via fluorescence of the redox-sensitive dye resazurin (Alamar blue). The drug melarsoprol was used as the positive control. […]
1.2 In vitro growth inhibition assay of Trypanosoma brucei rhodesiense
Trypanosoma brucei rhodesiense, STIB 900 strain, and the standard drug, melarsoprol, were used for the assay. Minimum Essential Medium (50 μL) supplemented with 25 mM HEPES, 1g/L additional glucose, 1% MEM non-essential amino acids (100x), 0.2 mM 2-mercaptoethanol, 1 mM Na-pyruvate and 15% heat-inactivated horse serum was added to each well of a 96-well microtiter plate. Serial drug dilutions of 11 three-fold dilution steps covering a range from 100 to 0.002 μg/mL were prepared. Then […]
mL double-distilled water) was then added to each well and incubation continued for a further 2–4 h.
Then, the plates were read with a Spectramax Gemini XS microplate fluorometer (Molecular Devices Cooperation, Sunnyvale, CA, USA) using an excitation wavelength of 536 nm and an emission wavelength of 588 nm. The IC50 values were calculated from the sigmoidal inhibition curves using the microplate reader software Softmax Pro (Molecular Devices Cooperation, Sunnyvale, CA, USA).
Melarsoprol was used as control. […]

[3] = tested on: L6 cells rat skeletal myoblasts; test: Cytotoxicity against L6 cells (Alamar blue); format: cell-based; conditions: read-out: Cyt. L6 IC50
Protocol: The antiprotozoal activity of 5a,b has already been described in the literature. […] Cytotoxicity was determined using L6 rat skeletal myoblasts to calculate a selectivity index for each parasite (SI = IC50(L6)/IC50(parasite)).
Cytotoxicity was determined in vitro against rat L6 myoblasts as described; details are listed in the supplement. […]
1.3 Cytotoxicity against L6 cells
Assays were performed in 96-well microtiter plates, each well containing 100 μL of RPMI 1640 medium supplemented with 1% L-glutamine (200 mM) and 10% foetal bovine serum, and 4000 L6 cells (a […] cell line derived from rat skeletal myoblasts). Serial drug dilutions of 11 threefold dilution steps covering a range from 100 to 0.002 μg/mL were prepared. After 72 h of incubation, the plates were inspected under an inverted microscope to assure growth of the controls and sterile conditions. 10 μL of Alamar Blue solution was then added to each well and the plates incubated for another 2 h. Then the plates were read with a Spectramax Gemini XS microplate fluorometer (Molecular Devices Cooperation, Sunnyvale, CA, USA) using an excitation wavelength of 536 nm and an emission wavelength of 588 nm.
The IC50 values were calculated by linear regression from the sigmoidal dose inhibition curves using the microplate reader software Softmax Pro (Molecular Devices Cooperation, Sunnyvale, CA, USA).
Podophyllotoxin (Sigma P4405) was used as control.

[4] = NF54, strain NF54, erythrocytic stages, means of two to three measurements, SD <5%, read-out: P. falc. IC50
[5] = strain STIB900 trypomastigote forms, means of two to three measurements, SD <5%, read-out: T. b. rhod. IC50
[6] = L6 rat skeletal myoblasts, 72 h

COC(=O)CC1(O)C=C(Br)C(=O)C(Br)=C1 [Compound 4f, Methyl 2-(3,5-dibromo-1-hydroxy-4-oxocyclohexa-2,5-dien-1-yl)acetate]
IC50 [1, 4]: 391 nM
ligand efficiency lipophilic price (LELP), P. falciparum [1]: 1.613
lipophilic ligand efficiency (LLE), P. falciparum [1]: 5.4625
IC50 [2, 5]: 24 nM
ligand efficiency lipophilic price (LELP), T. brucei rhodesiense [2]: 1.3564
lipophilic ligand efficiency (LLE), T. brucei rhodesiense [2]: 6.6745
IC50 [3, 6]: 199 nM

CCN(CC)CCCC(C)Nc1ccnc2cc(Cl)ccc12 (stereo not drawn) [Chl., chloroquine, reference compound]
IC50 ([1]; NF54, read-out: P. falc. IC50): 2 nM
IC50 ([3]; Rattus norvegicus, L6, 72 h): 91100 nM

COC(=O)CC1(O)C=CC(=O)C=C1 [Compound 4a, Methyl 2-(1-hydroxy-4-oxocyclohexa-2,5-dien-1-yl)acetate]
IC50 [1, 4]: 969 nM
ligand efficiency lipophilic price (LELP), P. falciparum [1]: -0.2447
lipophilic ligand efficiency (LLE), P. falciparum [1]: 6.1690
IC50 [2, 5]: 588 nM
ligand efficiency lipophilic price (LELP), T. brucei rhodesiense [2]: -0.2362
lipophilic ligand efficiency (LLE), T. brucei rhodesiense [2]: 6.3859
IC50 [3, 6]: 391 nM

Nc1nc(N)nc(Nc2ccc([As]3SCC(CO)S3)cc2)n1 (stereo not drawn) [Mel., melarsoprol, reference compound]
IC50 ([2]; read-out: T. b. rhod. IC50): 4 nM
IC50 ([3]; Rattus norvegicus, L6, 72 h): 24200 nM

COC(=O)/C=C/C1(O)C=CC(=O)C=C1 [Compound 4i, Methyl (2E)-3-(1-hydroxy-4-oxocyclohexa-2,5-dien-1-yl)prop-2-enoate]
IC50 [1, 4]: 657 nM
ligand efficiency lipophilic price (LELP), P. falciparum [1]: 0.07742
lipophilic ligand efficiency (LLE), P. falciparum [1]: 6.1355
IC50 [2, 5]: 108 nM
ligand efficiency lipophilic price (LELP), T. brucei rhodesiense [2]: 0.0687
IC50 [3, 6]: 569 nM

COC(=O)CC1(O)C=CC(=O)C(Cl)=C1 (stereo not drawn) [Compound 4c, Methyl 2-(3-chloro-1-hydroxy-4-oxocyclohexa-2,5-dien-1-yl)acetate]
IC50 [1, 4]: 837 nM
ligand efficiency lipophilic price (LELP), P. falciparum [1]: 0.4433
lipophilic ligand efficiency (LLE), P. falciparum [1]: 5.8133
IC50 [2, 5]: 47 nM
ligand efficiency lipophilic price (LELP), T. brucei rhodesiense [2]: 0.3676
lipophilic ligand efficiency (LLE), T. brucei rhodesiense [2]: 7.0639
IC50 [3, 6]: 440 nM

O=C1C=CC(=O)c2cc(F)c(F)cc21 [Compound 5e, 6,7-Difluoro-1,4-dihydronaphthalene-1,4-dione]
IC50 [1, 4]: 689 nM
ligand efficiency lipophilic price (LELP), P. falciparum [1]: 2.7178
lipophilic ligand efficiency (LLE), P. falciparum [1]: 4.5208
IC50 [2, 5]: 166 nM
ligand efficiency lipophilic price (LELP), T. brucei rhodesiense [2]: 2.470
lipophilic ligand efficiency (LLE), T. brucei rhodesiense [2]: 5.1389
IC50 [3, 6]: 4800 nM
melting point: 128 to 130 °C

COc1cc([C@@H]2c3cc4c(cc3[C@H](O)[C@H]3COC(=O)[C@H]23)OCO4)cc(OC)c1OC [Pod., podophyllotoxin, reference compound]
IC50 ([3]; Rattus norvegicus, L6, 72 h): 7 nM

COC(=O)CC1(O)C=CC(=O)C(F)=C1 (stereo not drawn) [Compound 4b, Methyl 2-(3-fluoro-1-hydroxy-4-oxocyclohexa-2,5-dien-1-yl)acetate]
IC50 [1, 4]: 644 nM
ligand efficiency lipophilic price (LELP), P. falciparum [1]: 0.07582
lipophilic ligand efficiency (LLE), P. falciparum [1]: 6.1451
IC50 [2, 5]: 78 nM
lipophilic ligand efficiency (LLE), T. brucei rhodesiense [2]: 7.0619
IC50 [3, 6]: 657 nM

O=C1C=C(Cc2ccccc2)C(=O)c2ccccc21 [Compound 5c, 2-Benzyl-1,4-dihydronaphthalene-1,4-dione]
IC50 ([1]; NF54, read-out: P. falc. IC50): 917 nM
IC50 ([2]; read-out: T. b. rhod. IC50): 80 nM
IC50 ([2]; read-out: T. brucei rhodesiense IC50): < 100 nM
IC50 ([3]; Rattus norvegicus, L6, 72 h): 22000 nM

COC(=O)CCC1(O)C=CC(=O)C=C1 [Compound 4g, Methyl 3-(1-hydroxy-4-oxocyclohexa-2,5-dien-1-yl)propanoate]
ligand efficiency lipophilic price (LELP), P. falciparum [1]: 0.5999
lipophilic ligand efficiency (LLE), P. falciparum [1]: 4.7892
IC50 [2, 5]: 4870 nM
ligand efficiency lipophilic price (LELP), T. brucei rhodesiense [2]: 0.5746
lipophilic ligand efficiency (LLE), T. brucei rhodesiense [2]: 5.0134
IC50 [3, 6]: > 100000 nM
melting point: 49 to 50 °C

O=C1C=CC(=O)c2cc(F)ccc21 [Compound 5d, 6-Fluoro-1,4-dihydronaphthalene-1,4-dione]
IC50 [1, 4]: 677 nM
ligand efficiency lipophilic price (LELP), P. falciparum [1]: 2.3657
lipophilic ligand efficiency (LLE), P. falciparum [1]: 4.6292
IC50 ([2]; STIB900, stated in text in nM, read-out: T. brucei rhodesiense IC50): < 100 nM
IC50 [2, 5]: 93 nM
ligand efficiency lipophilic price (LELP), T. brucei rhodesiense [2]: 2.0757
lipophilic ligand efficiency (LLE), T. brucei rhodesiense [2]: 5.4913
IC50 [3, 6]: 2170 nM
melting point: 119 to 120 °C

COC(=O)CC1(O)C=CC(=O)C(Br)=C1 (stereo not drawn) [Compound 4d, Methyl 2-(3-bromo-1-hydroxy-4-oxocyclohexa-2,5-dien-1-yl)acetate]
IC50 [1, 4]: 301 nM
ligand efficiency lipophilic price (LELP), P. falciparum [1]: 0.6181
lipophilic ligand efficiency (LLE), P. falciparum [1]: 6.1264
IC50 [2, 5]: 42 nM
ligand efficiency lipophilic price (LELP), T. brucei rhodesiense [2]: 0.5464
lipophilic ligand efficiency (LLE), T. brucei rhodesiense [2]: 6.9818
IC50 [3, 6]: 214 nM

COC(=O)CC1(O)C=C(Cl)C(=O)C(Cl)=C1 [Compound 4e, Methyl 2-(3,5-dichloro-1-hydroxy-4-oxocyclohexa-2,5-dien-1-yl)acetate]
IC50 [1, 4]: 245 nM
ligand efficiency lipophilic price (LELP), P. falciparum [1]: 1.1301
lipophilic ligand efficiency (LLE), P. falciparum [1]: 5.9275
IC50 [2, 5]: 10 nM
ligand efficiency lipophilic price (LELP), T. brucei rhodesiense [2]: 0.9339
lipophilic ligand efficiency (LLE), T. brucei rhodesiense [2]: 7.3167
IC50 [3, 6]: 116 nM

O=C1C=CC2(C=C1)CCC(=O)O2 [Compound 4h, 1-Oxaspiro [4.5]deca-6,9-diene-2,8-dione]
ligand efficiency lipophilic price (LELP), P. falciparum [1]: 0.1197
lipophilic ligand efficiency (LLE), P. falciparum [1]: 5.4846
IC50 [2, 5]: 4890 nM
ligand efficiency lipophilic price (LELP), T. brucei rhodesiense [2]: 0.1253
lipophilic ligand efficiency (LLE), T. brucei rhodesiense [2]: 5.2346
IC50 [3, 6]: 425 nM
melting point: 105 to 106 °C
